Measurements as given in US8410168B2, “Methods and compositions for treating ophthalmic conditions with retinyl derivatives” (Acucela, Inc., priority 2004, dated 2013).

What was measured:
[1] = HPR concentration in the RPE of treated mice; assay type: in vivo
Method: (§1) We examined the effects on HPR on enzymes or proteins of the visual cycle using in vitro biochemical assays. Specifically, the utilization of exogenous all-trans retinol by membranes prepared from bovine RPE was studied. […] Steady-state levels of HPR in the RPE (determined from mice which have been given 20 mg/kg HPR, i.p., daily for 28 days) range from 5-10 μM. With this in mind, we examined the effects of 10 μM HPR on production of all-trans retinyl esters and 11-cis retinol in assays similar to those described above. […] In the presence of endogenous retinoids, utilization of exogenous all-trans retinol is extremely low and 11-cis retinol is produced solely from the endogenous all-trans retinyl esters. […] Thus, the retinoic acids appear to affect at least two targets in the visual cycle. We have determined that HPR-induced reduction of 11-cis retinol biosynthesis occurs via LRAT inhibition and reduction in all-trans retinyl ester levels. In this situation, the isomerase enzyme is starved for substrate and 11-cis retinol production declines.
We performed an analysis of the dissociation constant (KD) for 11cRAL and HPR binding to apo-CRALBP (see FIG. 15). […] This calculation is based upon the ligand concentration necessary to fully quench the protein fluorescence. The data reveal that both 11cRAL and HPR quench apo-CRALBP fluorescence maximally at ˜1.5 μM. Thus, although apo-CRALBP is described as an 11 cis-specific retinoid binding protein, it appears to bind HPR as well.
A second target for HPR in the visual cycle was identified using in vitro biochemical assays. Lecithin retinol acyl transferase (LRAT) catalyzes the conversion of retinol into retinyl esters. LRAT is critical not only for retinol-retinyl ester homeostasis but also for generation of substrate for visual chromophore biosynthesis. The data shown in panel A of FIG. 16 illustrate the inhibitory effect of HPR on the rate of retinyl ester synthesis. […] In a separate study, we have determined that HPR concentrations in the RPE approach 10 μM with a 10 mg/kg dose of HPR.

mice = assay: Retinoid composition, chromophore regeneration and electrophysiology in HPR-treated mice; assay type: in vivo; conditions: 10 mg/kg daily for 28 days
Text: Panels D-F of FIG. 17 are electrophysiological measurements of rod function (panel D), rod and cone function (panel E) and recovery from photobleaching (panel F).

[2] = system: patients with a variety of cancers; conditions: human patients; cited from earlier work
LRAT = molecular target: T1, LRAT (Bos taurus, UniProt Q9BGL2); assay: In vitro LRAT assay, retinyl ester synthesis by bovine RPE membranes/microsomes; assay type: biochemical
T1 construct: bovine RPE microsomes are used as an enzyme source; from tissue; host or cells: bovine retinal pigment epithelium (membranes / microsomes)
T1 sequence (Q9BGL2 1-230): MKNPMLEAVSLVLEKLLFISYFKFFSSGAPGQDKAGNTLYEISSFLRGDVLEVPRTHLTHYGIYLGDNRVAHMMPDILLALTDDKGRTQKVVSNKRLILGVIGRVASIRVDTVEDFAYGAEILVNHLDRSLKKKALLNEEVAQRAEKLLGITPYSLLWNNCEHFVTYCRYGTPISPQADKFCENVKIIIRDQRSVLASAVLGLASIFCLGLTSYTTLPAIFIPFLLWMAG
Method: as §1
A second target for HPR in the visual cycle was identified using in vitro biochemical assays. Lecithin retinol acyl transferase (LRAT) catalyzes the conversion of retinol into retinyl esters. LRAT is critical not only for retinol-retinyl ester homeostasis but also for generation of substrate for visual chromophore biosynthesis. The data shown in panel A of FIG. 16 illustrate the inhibitory effect of HPR on the rate of retinyl ester synthesis. In this assay, bovine RPE microsomes are used as an enzyme source and all-trans retinol (atROL) is the substrate. […] A secondary transformation (Eadie-Hofstee) of the kinetic data in panel A reveal that the mode of inhibition is competitive (see FIG. 16, panel B). Therefore, HPR competes with atROL for binding sites on LRAT. The apparent inhibition constant (Ki) was determined to be ˜6 μM. This means that at 6 μM HPR, the rate of retinyl ester synthesis would be decreased by 50%. In a separate study, we have determined that HPR concentrations in the RPE approach 10 μM with a 10 mg/kg dose of HPR.

ABCA4−/− mice = assay: HPR drug holiday after 28 days of treatment; assay type: in vivo, mouse
Method: HPR (10 mg/kg in DMSO) was administered to ABCA4−/− mice daily for a period of 28 days. Control ABCA4−/− mice received only DMSO for the same period. […] Importantly, the observed reductions in lipofuscin autofluorescence persist long after cessation of HPR therapy. HPR (10 mg/kg), or DMSO, administration was discontinued following 28 days of treatment and re-evaluated A2E and precursor levels after 2 weeks and after 4 weeks.
We examined eyecup extracts by HPLC and employed detection by absorbance and fluorimetry. Identity of the indicated peaks was confirmed by on-line spectral analysis and by co-elution with authentic standards. […] Further, the A2E and precursor (A2PE-H2 and A2PE) levels after a […] or 28-day drug holiday remained at or near the levels immediately following 28 days of treatment (i.e., ca. 50% reduction relative to control), although after the 28-day drug holiday, the amount of A2E and precursor (A2PE-H2 and A2PE) had increased by a few percentage points relative to the 12-day drug holiday levels. […] It is clear that peak fluorescence tracks with the abundance of A2E, A2PE and A2PE-H2.
This effect cannot be attributed to long-term reductions in serum retinol as serum retinol had returned to baseline 48 hours following the last HPR dose. […] Furthermore, HPR reduces serum retinol levels, which leads to a reduction in the level of retinol in the eyes of treated animals. Once the level of retinol has been reduced in the eye, there is a time lag in the subsequent increase in retinol levels in the eye. Alone or in combination, the production of A2E, A2PE and A2PE-H2 in the eye remains low despite the absence of HPR in the serum or the eye.

apo-CRALBP = molecular target: T2, apo-CRALBP (Homo sapiens, UniProt P12271); assay: Ni+ affinity column and spectroscopic analysis of binding to CRALBP; conditions: 10 μM apo-CRALBP, 20 μM ligand
T2 construct: made in house
Method: In order to confirm data obtained during fluorescence analysis of HPR binding to CRALBP, a second analysis was performed using affinity chromatography and spectroscopic analysis. The recombinant apo-CRALBP was constructed with a histidine tag which is utilized to purify the protein on a Ni+ affinity column following expression cloning. Here, we utilized this feature of apo-CRALBP to specifically “trap” the protein and any protein-ligand species for spectroscopic analysis. Two binding mixtures were prepared containing apo-CRALBP (10 μM) and either 11cRAL (20 μM) or HPR (20 μM). In control experiments for the analysis of non-specific ligand binding onto the affinity matrix, we prepared two additional mixtures containing only 11cRAL (20 μM) or HPR (20 μM) in binding buffer. The binding mixtures were passed through separate Ni+ affinity columns and the columns were washed extensively to elute unbound protein and ligand. Following the addition of elution buffer, the eluted fractions were analyzed by spectroscopy. […] Instead, two absorption maxima are seen: one at 280 nm and a second at 360 nm, which is attributable to the absorption of HPR (see FIG. 14).

T2 sequence (P12271 whole entry, species assumed): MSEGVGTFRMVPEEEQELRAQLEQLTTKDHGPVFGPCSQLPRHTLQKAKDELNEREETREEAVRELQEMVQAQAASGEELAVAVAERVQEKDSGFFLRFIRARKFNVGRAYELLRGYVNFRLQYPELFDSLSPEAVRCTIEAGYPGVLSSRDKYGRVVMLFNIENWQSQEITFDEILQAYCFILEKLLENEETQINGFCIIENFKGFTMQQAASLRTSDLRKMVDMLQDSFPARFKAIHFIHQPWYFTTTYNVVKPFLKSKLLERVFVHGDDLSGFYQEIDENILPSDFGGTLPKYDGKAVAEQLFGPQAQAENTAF

CC1=C(/C=C/C(C)=C/C=C/C(C)=C/C(=O)Nc2ccc(O)cc2)C(C)(C)CCC1 [HPR, N-(4-hydroxyphenyl)retinamide]
HPR concentrations in the RPE ([1]; 10 mg/kg dose of HPR): ~10 µM | concentration at 28 days ([1]; BL6/129, mouse, RPE (retinal pigment epithelium), intraperitoneal, 20 mg/kg HPR, i.p., daily for 28 days, read-out: steady-state levels of HPR in the RPE): 5 to 10 µM | concentrations of HPR in the RPE during the animal trials ([1]; even at the lowest dose of 2.5 mg/kg): exceed 30 nM | regeneration of visual chromophore (mice): does not affect | plasma concentration after high fat meals versus carbohydrate meals [2]: three times greater | mode of inhibition of LRAT (LRAT; Eadie-Hofstee transformation): competitive | net retinyl ester synthesis (LRAT; bovine RPE microsomes, atROL substrate): decreases net retinyl ester synthesis in a concentration-dependent manner | Ki (LRAT; bovine RPE microsomes, atROL substrate, read-out: apparent inhibition constant (Ki), LRAT): ~6 µM | IC50 (LRAT; membranes from bovine RPE, exogenous all-trans retinol, read-out: half-maximal inhibition of LRAT): ~20 µM | reduction of A2E and precursor (A2PE-H2 and A2PE) levels relative to control (ABCA4−/− mice; 10 mg/kg 28 days, then 12- or 28-day drug holiday): ca. 50% | detection in the eyes after drug holiday (ABCA4−/− mice; 28-day drug holiday): unable to detect | time for serum retinol to return to baseline after the last HPR dose (ABCA4−/− mice; mouse, in vivo): 48 h | binding to apo-CRALBP by absorption spectra of eluted fraction (apo-CRALBP): binds apo-CRALBP
